Reference: patent US20250257075A1, “MACROCYCLIC INHIBITORS OF KRAS FOR THE TREATMENT OF CANCER” (Hoffmann-La Roche Inc., priority 2022, published 2025)

Key:
[1] = test system: phosphorylation of ERK, KRAS G12V in SW620; assay: pERK inhibition assay, G12V; assay type: cell-based, human; conditions: Homo sapiens, SW-620; SW620, 4 hours of incubation
Description: (§1) This assay is to measure the ability of test compounds in inhibiting the phosphorylation of ERK, the downstream signaling of KRAS G12C in NCI-H358 cells, KRAS G12D in AGS cells, and KRAS G12V in SW620. NCI-H358 (ATCC-CRL5807) cells, AGS (ATCC-CRL-1739) cells, SW620 (ATCC-CCL-227) cells were all grown and maintained using RPMI-1640 medium (Thermo Fisher Scientific) with 10% fetal bovine serum and 1% penicillin/streptomycin. On the day prior to compound addition, cells were plated in tissue culture-treated 96 well plates (Corning-3699) at a density of 30,000 cell/well, 20,000 cell/well, 30,000 cell/well for NCI-H358, AGS and SW620 respectively, and allowed for attachment overnight. Diluted compounds were then added in a final concentration of 0.5% DMSO. After 4 hours of incubation, the medium was removed, 100 μL of 4% formaldehyde was added, and the assay plates were incubated at room temperature for 20 minutes. The plates were then washed once with phosphate buffered saline (PBS), and permeabilized with 100 μL of chilled methanol for 10 minutes. Non-specific antibody binding to the plates was blocked using 50 μL 1×BSA blocking buffer (Thermo-37520, 10-fold dilution by Phosphate-Buffered Saline Tween (PBST) for at least 1 hour at room temperature.
(§2) The amount of phosphor-ERK was determined using an antibody specific for phosphorylated form of ERK. Primary antibody (pERK, CST-4370, Cell Signaling Technology) was diluted 1:300 in blocking buffer, with 50 μL aliquoted to each well, and incubated overnight at 4° C. Cells was washed five times for 5 minutes with PBST. Secondary antibody (HRP-linked anti-rabbit IgG, CST-7074, Cell Signaling Technology) was diluted 1:1000 in blocking buffer, and 50 μL was added to each well and incubated 1-2 hrs at room temperature. Cells was washed 5 times for 5 minutes with PBST, 100 μL TMB ELISA substrate (abcam-ab171523) were added and gently shake for 20 minutes. 50 μL stop solution (abcam-ab171529) were added, and then read the signal (OD450) by EnVision.
(§3) IC50 was determined by fitting a 4-parameter sigmoidal concentration response model.

[2] = test system: phosphorylation of ERK, KRAS G12D in AGS cells; assay: pERK inhibition assay, G12D; assay type: cell-based, human; conditions: Homo sapiens, 4 hours of incubation
Description: as §1, §2, §3

[3] = test system: phosphorylation of ERK, KRAS G12C in NCI-H358 cells; assay: pERK inhibition assay, G12C; assay type: cell-based, human; conditions: Homo sapiens; NCI-H358, 4 hours of incubation
Description: as §1, §2, §3

[4] = test system: NCI-H358 cells (KRAS G12C); assay: Cell viability assay, G12C; assay type: cell-based, human; conditions: Homo sapiens; NCI-H358, 72 hrs, Cell Counting Kit-8
Description: (§4) The purpose of this cellular assay was to determine the effects of test compounds on the proliferation of human cancer cell lines NCI-H358 (ATCC-CRL5807) cells, AGS (ATCC-CRL-1739) cells, SW620 (ATCC-CCL-227) over a 3-day treatment period by quantifying the amount of NADPH present at endpoint using Cell Counting Kit-8.
(§5) Cells were seeded at 5,000 cells/well (NCI-H358), 2,000 cells/well (AGS) 2,000 cells/well (SW620) in 96-well assay plates (Corning-3699) and incubated overnight. On the day of the assay, diluted compounds were then added in a final concentration of 0.5% DMSO. After 72 hrs incubation, a tenth of the volume of cell counting kit 8 (Dnjindo-CK04) was added into each well. Read the signal (OD450 minus OD650) using EnVision after 2 hrs incubation. IC50 was determined by fitting a 4-parameter sigmoidal concentration response model.

SW620 cells (KRAS G12V) = assay: Cell viability assay, G12V; assay type: cell-based, human; conditions: Homo sapiens, SW-620; SW620, 72 hrs, Cell Counting Kit-8
Description: as §4, §5

AGS cells (KRAS G12D) = assay: Cell viability assay, G12D; assay type: cell-based, human; conditions: Homo sapiens, 72 hrs, Cell Counting Kit-8
Description: as §4, §5

KRAS G12C-BRAF complex = target: T1, KRAS G12C-BRAF complex (Homo sapiens, UniProt P01116+P62937, G12C); assay: KRAS G12C-BRAF NanoBit assay in HEK293 cells; assay type: cell-based; conditions: HEK293 stable cell pool, 3 hours of incubation
T1 construct: expressed in transfected cells
T1 sequence (P01116 1-188 isoform P01116-2 G12C): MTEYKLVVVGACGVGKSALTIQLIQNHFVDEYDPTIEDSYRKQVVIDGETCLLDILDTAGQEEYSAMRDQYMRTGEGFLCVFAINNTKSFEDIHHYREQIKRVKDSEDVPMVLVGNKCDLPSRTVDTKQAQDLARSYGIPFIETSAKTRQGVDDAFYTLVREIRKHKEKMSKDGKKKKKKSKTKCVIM
T1 sequence (P62937 whole entry): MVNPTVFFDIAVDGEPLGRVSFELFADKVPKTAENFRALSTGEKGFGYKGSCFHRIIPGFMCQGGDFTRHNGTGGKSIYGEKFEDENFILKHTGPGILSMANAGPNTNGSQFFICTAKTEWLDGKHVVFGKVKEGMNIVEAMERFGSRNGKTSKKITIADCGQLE
Description: This assay is to measure the ability of tested compounds in disruption of the KRAS G12C-BRAF complex at the cellular level, we established the NanoBit cellular assay in mammalian HEK293 (ATCC) cells. HEK293 cells were grown and maintained using DMEM medium (Thermo Fisher Scientific) with 10% fetal bovine serum and 1% penicillin/streptomycin. Both KRAS G12C and BRAF RBD were cloned into the NanoBit vectors ([…] vectors system, Promega) with the orientations SmBit-KRAS G12C and BRAF RBD-LgBit, respectively, and co-transfected into HEK293 cells. Cells were then selected with 100 μg/mL Hygromycin B (10687010, Thermo Fisher) and Blasticidin (5 μg/mL) for 4 weeks to get the stable cell pool. On the day of the assay, 75 nL of compound solution was presented in a 384-well assay plate as a 16-point 3-fold dilution starting from a final concentration of 30 μM in DMSO. Then cells were seeded at 10,000 cells/25 μL/well in a 384-well plate. After 3 hours of incubation, 6 μL of volume of Nano-Glo® Live Cell Substrate (Promega) was added into each well. Monitor luminescence using ultra384 model in Envision at 20 minutes. Compounds that facilitate disruption of the KRAS G12C-BRAF RBD complex were identified as those eliciting a decrease of luminescence relative to DMSO control wells.

Compound	IC50 [1] [µM]	IC50 [2] [µM]	IC50 [3] [µM]	IC50 [4] [µM]	IC50 (SW620 cells (KRAS G12V)) [µM]	IC50 (AGS cells (KRAS G12D)) [µM]	IC50 (KRAS G12C-BRAF complex) [µM]
CO[C@@H](C)c1ncc(N2CCN(CC(F)(F)F)CC2)cc1-c1c2c3cc(c(F)cc3n1CC(F)(F)F)-c1csc(n1)C[C@H](NC(=O)[C@H](C(C)C)N(C)C(=O)N1CC(C#CC(F)(F)F)C1)C(=O)N1CCC[C@H](N1)C(=O)OCC(C)(C)C2 (atropisomer, axis not shown; (M)) [Example 18, N-[(1S)-1-[[(7S,13S)-24-fluoro-(20M)-20-[2-[(1S)-1-methoxyethyl]-5-[4-(2,2,2-trifluoroethyl)piperazin-1-yl]-3-pyridyl]-17,17-dimethyl-8,14-dioxo-21-(2,2,2-trifluoroethyl)-15-oxa-4-thia-9,21,27,28-tetrazapentacyclo[17.5.2.1^2,5.1^9,13.0^22,26]octacosa-1(25),2,5(28),19,22(26),23-hexaen-7-yl]carbamoyl]-2-methyl-propyl]-N-methyl-3-(3,3,3-trifluoroprop-1-ynyl)azetidine-1-carboxamide]	0.048	> 10	0.051	0.006	> 10	> 10	0.24
CCn1c(-c2cc(N3CCOCC3)cnc2[C@H](C)OC)c2c3cc(c(F)cc31)-c1csc(n1)C[C@H](NC(=O)[C@H](C(C)C)N(C)C(=O)N1CC(C#CC(F)(F)F)C1)C(=O)N1CCCC(N1)C(=O)OCC(C)(C)C2 (stereo partly drawn) [Example 20, N-[(1S)-1-[[(7S,13S)-21-ethyl-24-fluoro-(20M)-20-[2-[(1S)-1-methoxyethyl]-5-morpholino-3-pyridyl]-17,17-dimethyl-8,14-dioxo-15-oxa-4-thia-9,21,27,28-tetrazapentacyclo[17.5.2.1^2,5.1^9,13.0^22,26]octacosa-1(25),2,5(28),19,22(26),23-hexaen-7-yl]carbamoyl]-2-methyl-propyl]-N-methyl-3-(3,3,3-trifluoroprop-1-ynyl)azetidine-1-carboxamide]	0.096	2.51	0.093	0.025	0.119	> 10	0.084
CCn1c(-c2cc(N3CCOCC3)cnc2[C@H](C)OC)c2c3cc(c(F)cc31)-c1csc(n1)C[C@H](NC(=O)[C@H](C(C)C)N(C)C(=O)[C@H]1C[C@@H](C#Cc3nccc(C(F)(F)F)n3)C1)C(=O)N1CCC[C@H](N1)C(=O)OCC(C)(C)C2 (atropisomer, axis not shown; (M)) [Example 21, cis-N-[(1S)-1-[[(7S,13S)-21-ethyl-24-fluoro-(20M)-20-[2-[(1S)-1-methoxyethyl]-5-morpholino-3-pyridyl]-17,17-dimethyl-8,14-dioxo-15-oxa-4-thia-9,21,27,28-tetrazapentacyclo[17.5.2.1^2,5.1^9,13.0^22,26]octacosa-1(25),2,5(28),19,22(26),23-hexaen-7-yl]carbamoyl]-2-methyl-propyl]-N-methyl-3-[2-[4-(trifluoromethyl)pyrimidin-2-yl]ethynyl]cyclobutanecarboxamide]	0.076	> 10	0.019	0.02	0.222	0.231	0.085

More lines, in order of falling IC50 [1], values ahead:

IC50 [1] [µM]	IC50 [2] [µM]	IC50 [3] [µM]	IC50 [4] [µM]	IC50 (SW620 cells (KRAS G12V)) [µM]	IC50 (AGS cells (KRAS G12D)) [µM]	IC50 (KRAS G12C-BRAF complex) [µM]	Compound
0.078	0.172	0.013	0.012	0.152	> 10	0.036	CO[C@@H](C)c1ncc(N2CCOCC2)cc1-c1c2c3cc(c(F)cc3n1CC(F)(F)F)-c1csc(n1)C[C@H](NC(=O)[C@H](C(C)C)N(C)C(=O)[C@H]1C[C@@H](C#CC(F)(F)F)C1)C(=O)N1CCC[C@H](N1)C(=O)OCC(C)(C)C2 (atropisomer, axis not shown; (M)) [Example 22, cis-N-[(1S)-1-[[(7S,13S)-24-fluoro-(20M)-20-[2-[(1S)-1-methoxyethyl]-5-morpholino-3-pyridyl]-17,17-dimethyl-8,14-dioxo-21-(2,2,2-trifluoroethyl)-15-oxa-4-thia-9,21,27,28-tetrazapentacyclo[17.5.2.1^2,5.1^9,13.0^22,26]octacosa-1(25),2,5(28),19,22(26),23-hexaen-7-yl]carbamoyl]-2-methyl-propyl]-N-methyl-3-(3,3,3-trifluoroprop-1-ynyl)cyclobutanecarboxamide]
0.031	> 10	0.021	0.011	0.237	0.743	0.209	CO[C@@H](C)c1ncc(N2CCN(C)CC2)cc1-c1c2c3cc(c(F)cc3n1CC(F)(F)F)-c1csc(n1)C[C@H](NC(=O)[C@H](C(C)C)N(C)C(=O)[C@H]1C[C@@H](C#Cc3nccc(C(F)(F)F)n3)C1)C(=O)N1CCC[C@H](N1)C(=O)OCC(C)(C)C2 (atropisomer, axis not shown; (M)) [Example 16, cis-N-[(1S)-1-[[(7S,13S)-24-fluoro-(20M)-20-[2-[(1S)-1-methoxyethyl]-5-(4-methylpiperazin-1-yl)-3-pyridyl]-17,17-dimethyl-8,14-dioxo-21-(2,2,2-trifluoroethyl)-15-oxa-4-thia-9,21,27,28-tetrazapentacyclo[17.5.2.1^2,5.1^9,13.0^22,26]octacosa-1(25),2,5(28),19,22(26),23-hexaen-7-yl]carbamoyl]-2-methyl-propyl]-N-methyl-3-[2-[4-(trifluoromethyl)pyrimidin-2-yl]ethynyl]cyclobutanecarboxamide]
0.021	> 10	0.02	–	–	–	–	CCn1c(-c2cc(N3CCN(CC(F)(F)F)CC3)cnc2[C@H](C)OC)c2c3cc(c(F)cc31)-c1csc(n1)C[C@H](NC(=O)[C@H](C(C)C)N(C)C(=O)N1CC(C#CC(F)(F)F)C1)C(=O)N1CCC[C@H](N1)C(=O)OCC(C)(C)C2 (atropisomer, axis not shown; (M)) [Example 15, N-[(1S)-1-[[(7S,13S)-21-ethyl-24-fluoro-(20M)-20-[2-[(1S)-1-methoxyethyl]-5-[4-(2,2,2-trifluoroethyl)piperazin-1-yl]-3-pyridyl]-17,17-dimethyl-8,14-dioxo-15-oxa-4-thia-9,21,27,28-tetrazapentacyclo[17.5.2.1^2,5.1^9,13.0^22,26]octacosa-1(25),2,5(28),19,22(26),23-hexaen-7-yl]carbamoyl]-2-methyl-propyl]-N-methyl-3-(3,3,3-trifluoroprop-1-ynyl)azetidine-1-carboxamide]
